In the NIST ThermoML archive (doi:10.1021/je300652k):

Details: Liquid, Pulse-echo method

FC(F)(F)C1(F)OC1(F)F (stereo unspecified) [2,2,3-trifluoro-3-(trifluoromethyl)oxirane]
Details | speed of sound [m/s]
253.15 K, 2510 kPa | 571.2
253.15 K, 10040 kPa | 623.9
253.15 K, 25020 kPa | 708
253.15 K, 50030 kPa | 816.7
253.15 K, 75010 kPa | 903.6
253.15 K, 100040 kPa | 977.8
253.15 K, 125040 kPa | 1043.1
253.15 K, 150010 kPa | 1101.9
253.15 K, 175030 kPa | 1155.8
253.15 K, 200030 kPa | 1205.6
253.15 K, 250060 kPa | 1295.5
253.15 K, 300100 kPa | 1376.5
253.15 K, 350000 kPa | 1449.2
253.15 K, 400120 kPa | 1516.7
283.15 K, 2500 kPa | 449.4
283.15 K, 9990 kPa | 517.5
283.15 K, 25000 kPa | 617.4
283.15 K, 49990 kPa | 737.8
283.15 K, 74990 kPa | 831.4
283.15 K, 100050 kPa | 910
283.15 K, 125050 kPa | 978.4
283.15 K, 150010 kPa | 1039.3
283.15 K, 175090 kPa | 1095.2
283.15 K, 200080 kPa | 1146.8
283.15 K, 250010 kPa | 1239.4
283.15 K, 300020 kPa | 1321.5
283.15 K, 350020 kPa | 1396.5
283.15 K, 400120 kPa | 1465.2
313.15 K, 2500 kPa | 326.6
313.15 K, 10010 kPa | 420.6
313.15 K, 25030 kPa | 538.8
313.15 K, 50010 kPa | 670.9
313.15 K, 75040 kPa | 769.9
313.15 K, 100050 kPa | 852
313.15 K, 125040 kPa | 922.8
313.15 K, 150070 kPa | 986.2
313.15 K, 175020 kPa | 1043.4
313.15 K, 200020 kPa | 1095.8
313.15 K, 250020 kPa | 1190.7
313.15 K, 300010 kPa | 1274.7
313.15 K, 350030 kPa | 1350.5
313.15 K, 400060 kPa | 1420.2
343.15 K, 10040 kPa | 332.6
343.15 K, 25050 kPa | 471.3
343.15 K, 50030 kPa | 614.1
343.15 K, 75030 kPa | 718
343.15 K, 100050 kPa | 803
343.15 K, 125030 kPa | 875.8
343.15 K, 150030 kPa | 940.5
343.15 K, 175010 kPa | 999.1
343.15 K, 200060 kPa | 1052.9
343.15 K, 250050 kPa | 1149.1
343.15 K, 299960 kPa | 1234.4
343.15 K, 350090 kPa | 1311.5
343.15 K, 400040 kPa | 1382.2
373.15 K, 10010 kPa | 255
373.15 K, 24970 kPa | 413.4
373.15 K, 50060 kPa | 565.5
373.15 K, 75000 kPa | 673
373.15 K, 100040 kPa | 760
373.15 K, 125040 kPa | 834.6
373.15 K, 150040 kPa | 900.3
373.15 K, 175000 kPa | 959.8
373.15 K, 200070 kPa | 1014.2
373.15 K, 249990 kPa | 1111.6
373.15 K, 300030 kPa | 1198
373.15 K, 350040 kPa | 1275.4
373.15 K, 400010 kPa | 1346.4
403.15 K, 20010 kPa | 322.5
403.15 K, 25020 kPa | 367.5
403.15 K, 50020 kPa | 525.9
403.15 K, 75050 kPa | 636.7
403.15 K, 100040 kPa | 725.7
403.15 K, 125010 kPa | 801.5
403.15 K, 150040 kPa | 868.4
403.15 K, 175040 kPa | 928.7
403.15 K, 200050 kPa | 983.8
403.15 K, 250040 kPa | 1082.6
403.15 K, 299980 kPa | 1169.6
403.15 K, 350040 kPa | 1247.9
403.15 K, 399990 kPa | 1319.9
